Values quoted from earlier work as cited in patent US11311620B2, “Neoadjuvant therapy for bladder cancer” (PHOTOCURE ASA, priority 2016, dated 2022).

Experiments:
NMIBC = settings: patients with NMIBC
MIBC = settings: patients who had cystectomy; HAL-guided TUR prior to cystectomy; 268 consecutive patients, retrospective
bladder cancer = settings: neoadjuvant cisplatin-containing chemotherapy

In the case of `CCCCCCOC(=O)CCC(=O)CN` [HAL, n-hexyl 5-amino-4-oxo-pentanoate], the “rate of residual tumor after TUR” value (NMIBC) is given as “reduced the rate of residual tumor”, the “recurrence free survival (RFS) rates compared to white light TUR alone” value (NMIBC) is given as “superior recurrence free survival (RFS) rates” and the “detection of papillary tumors and flat carcinoma-in-situ (CIS) lesions” value (NMIBC; compared to white light alone) is given as “improved detection”. For the same molecule, the “3-year overall survival (OS)” value (MIBC) was 65.0% and the “3-year recurrence-free survival (RFS)” value (MIBC) was 69.8%.

For `N.N.[Cl][Pt][Cl]` [cisplatin], the “absolute improvement in survival at 5 years” value (bladder cancer) is listed as 5%.
